Data as given in patent US20140161897A1, “METHOD FOR TREATING CANCERS, SUCH AS MYELOMA AND BREAST CANCER, WITH A COMBINATION OF TBL-12 AND VELCADE” (priority 2012, published 2014).

System: human myeloma cells (U266, MM1, KMS1, and APR1)
Assay: MTT cell survival of IL-6 or TNFα stimulated myeloma cells
Assay type: cell-based
Conditions: U-266, with constant TBL-12 100 ug/ml, read-out: IC50 for Velcade, in combination with the TBL-12
Procedure: Different human myeloma cells (U266, MM1, KMS1, and APR1), which are commercially available were cultured in standard 96 well plates using standard methods to exponential growth face. The cells were stimulated by either 1L-6 (5 ng/ml), or TNFα (5 ng/ml).
The cells were then contacted with a combination of a constant concentration of TBL-12 (100 ug/ml), either by itself, or with various concentration of Velcade (2.5, 5, 10, and 15 ng). Cells which received neither TBL-12 nor Velcade were used as a control. Cell survival was measured, using an MTT assay, at 24, 48, and 72 hours.

CC(C)C[C@H](NC(=O)[C@H](Cc1ccccc1)NC(=O)c1cnccn1)B(O)O [Velcade, Bortezomib]
IC50: ~5 ng/mL
